We go through eight molecules from patent US4883797A, “Derivatives of piperazine, method for making the same” (Ferrer Internacional, S.A., priority 1982, dated 1989).

The subject of data set [1] is mice. The note with it: endovenous.
Data set [2] has as its system carotid flow. The data set is described as follows: Carotid flow change by electromagnetic flowmetry, anesthetized dogs. Type of data set: in vivo. The settings on record: endovenous, 5 mg/kg, variation over mean values before testing.
Experimental: (§1) Both parameters have been measured by electromagnetic flowmetry (Narcomatic-Electromagnetic flowmeter) on 12 anesthetized dogs. The hemodynamic parameter average of animals before testing were pO2 =95.40±3.98; pCO2 =34.31.congruent.2.38 and pH-7.297±0.315 by endovenously administering the compounds of a 5 mg/kg dosis.
Data set [3] has as its system cerebral vascular resistance. Put plainly: Cerebral vascular resistance determined simultaneously with cerebral and carotid flows, anesthetized dogs. Type of data set: in vivo. The note with it: endovenous, 5 mg/kg, variation over mean values before testing.
Experimental: (§2) The measurements of cerebral and carotid flow changes (parameters 4 and 5) have been made using the most sophisticated methods. Both parameters have been measured by electromagnetic flowmetry (Narcomatic-Electromagnetic flowmeter) on 12 anesthetized dogs. The hemodynamic parameter average of animals before testing were pO2 =95.40±3.98; pCO2 =34.31.congruent.2.38 and pH-7.297±0.315 by endovenously administering the compounds of a 5 mg/kg dosis.
(§3) Simultaneously with the measuring of cerebral and carotid flows, the mean arterial pressure and cerebral vascular resistance (parameters 6,7) in each animal was determined. These parameters were measured according to the conventional method in Cardiovascular Pharmacology and the values were tabulated as the variation rate (Increase or Decrease) over mean values before testing.
Data set [4] relates to cerebral flow. The data set is described as follows: Cerebral flow change by electromagnetic flowmetry, anesthetized dogs. Type of data set: in vivo. The settings on record: endovenous, 5 mg/kg, variation over mean values before testing.
Experimental: as §1
Data set [5] concerns mean arterial pressure. The data set is described as follows: Decrease in mean arterial pressure (hypotension), anesthetized rats, endovenous. Type of data set: in vivo. The note with it: for ED50: Rattus norvegicus, iv.
Text: (§4) The decrease in arterial pressure (Parameter 2) and the effects on heart rate (Parameter 3) have been evaluated according to the usual conventional methods used in Cardiovascular Pharmacology.
Data set [6] deals with arterial pressure. Put plainly: Mean arterial pressure determined simultaneously with cerebral and carotid flows, anesthetized dogs. The note with it: endovenous, 5 mg/kg, variation over mean values before testing. Type of data set: in vivo.
Experimental: as §2, §3
Data set [7] deals with mice. Put plainly: Antiarrhythmic activity, method of Ferrini et al, endovenous administration to mice. Type of data set: in vivo. The settings on record: for ED50: Mus musculus, iv, read-out: Antiarrythmic activity ED50.
Text: Antiarrhythmic activity (Parameter 1) has been determined according to the method of Ferrini et al (Arzn.-Forsch., 29 (II), 9a, 1947-77, 1979).
Data set [8] concerns heart rate. The data set is described as follows: Effect on heart rate (bradycardia), anesthetized rats, endovenous. Type of data set: in vivo. The settings on record: for ED50: Rattus norvegicus, iv.
Text: as §4
Data set [9] is described as follows: in vivo. The note with it: mouse, iv.

Turning to `C=CCN1CCN(C(c2ccccc2)c2ccccc2)CC1` [Aligeron 2HCI, reference compound], the “Acute toxicity LD50” value in data set [1] is listed as 38.5 ± 1.06 mg/kg. Also, in data set [2], the “Carotid flow Decrease” value is listed as 21.3%. Besides, the “Cerebral vascular resistance Decrease” value in data set [3] is 61.0%. Also, in data set [4], the “Cerebral flow Increase” value is given as 64.0%. Also, the “Mean arterial pressure, Hypotension ED50” value in data set [5] is given as 1.3 mg/kg. The “Arterial pressure Decrease” value in data set [6] was 36.0%. Further, the “Antiarrythmic activity ED50” value in data set [7] turned out to be 4.4 mg/kg. Moreover, the “Heart rate, Bradycardia ED50” value in data set [8] stood at 4.8 mg/kg.
With `C(=C\c1ccccc1)/CN1CCN(C(c2ccccc2)c2ccccc2)CC1` [Cinnarizine 2HCI, reference compound], the “Carotid flow Decrease” value in data set [2] is recorded as 62.8%. The “Cerebral vascular resistance Decrease” value in data set [3] turned out to be 68.0%. Moreover, the “Cerebral flow Increase” value in data set [4] came out at 76.7%. In [6], the “Arterial pressure Decrease” value came out at 43.0%.
As a reminder, the LD50 is the dose at which mortality reaches 50%. A higher LD50 goes with a less toxic substance. As a reminder, the ED50 is the dose that gives a 50% effect, or the effect in half of the subjects. In the case of `Cl.Cl.c1ccc(C(c2ccccc2)N2CCN(CC3CC3)CC2)cc1` [Compound 1, 1-Benzhydryl-4-cyclopropylmethyl-piperazine dihydrochloride], in [2], the “Carotid flow Decrease” value is recorded as 68.0%. In data set [9], this molecule displayed a 50% lethal dose (LD50) of 25.6 ± 4.39 mg/kg. Besides, in data set [3], the “Cerebral vascular resistance Decrease” value amounted to 55.0%. Moreover, the “Cerebral flow Increase” value in data set [4] was 55.0%. Also, the values for the ED50 in [5], in data set [7] and in data set [8] were 2.7 mg/kg, 4.2 mg/kg and 3.4 mg/kg, respectively. Also, in data set [6], the “Arterial pressure Decrease” value came to 30.0%.
On to `C=C(CN1CCCCC1)CN1CCN(C(c2ccccc2)c2ccccc2)CC1` [Compound 6, 1-Benzhydryl-4-(2-(1-piperidinylmethyl)-2-propenyl)piperazine], for which the “Carotid flow Decrease” value in [2] is 22.0%. The same molecule had an LD50 in data set [9] of 8.6 ± 0.54 mg/kg. For the same molecule, the “Cerebral vascular resistance Decrease” value in data set [3] is given as 75.3%. Also, the “Cerebral flow Increase” value in [4] stood at 70.0%. For the same molecule, the ED50 in data set [5] stood at 1.5 mg/kg; in [7], 4.3 mg/kg; in [8], 1.7 mg/kg. Moreover, the “Arterial pressure Decrease” value in data set [6] is recorded as 58.0%.
As for `CCOC(=O)C=CCN1CCN(C(c2ccccc2)c2ccccc2)CC1` [Compound 7], the “Carotid flow Decrease” value in [2] is on record as 13.0%. Further, the LD50 in data set [9] turned out to be 100 ± 6.27 mg/kg. The “Cerebral vascular resistance Decrease” value in data set [3] amounted to 44.7%. In data set [4], the “Cerebral flow Increase” value was 32.0%. Further, the figures for the ED50 in data set [5], in data set [7] and in data set [8] were 2.1 mg/kg, 23 mg/kg and 3.8 mg/kg, respectively. Further, in data set [6], the “Arterial pressure Decrease” value worked out at 27.3%.
Consider `O=C(CCCN1CCN(C(c2ccccc2)c2ccccc2)CC1)c1ccccc1` [Compound 11], for which, in data set [2], the “Carotid flow Decrease” value was determined as 40.9%. Further, the LD50 in [9] was found to be 21 ± 1.72 mg/kg. Besides, the “Cerebral vascular resistance Decrease” value in data set [3] is listed as 74.0%. The “Cerebral flow Increase” value in data set [4] is listed as 81.0%. Besides, the ED50 came out at 0.43 mg/kg in data set [5], 6.9 mg/kg in data set [7] and 2.1 mg/kg in [8]. The “Arterial pressure Decrease” value in data set [6] is given as 50.0%.
As for `c1ccc(C(c2ccccc2)N2CCN(CCCC3(c4ccccc4)OCCO3)CC2)cc1` [Compound 13], in [2], the “Carotid flow Decrease” value was 25.7%. In addition, the LD50 in data set [9] is 42.5 ± 3.05 mg/kg. For the same molecule, the “Cerebral vascular resistance Decrease” value in data set [3] amounted to 73.1%. For the same molecule, the “Cerebral flow Increase” value in [4] was 140.1%. Further, the values for the ED50 in [5], in data set [7] and in [8] were 1.5 mg/kg, 4 mg/kg and 2.6 mg/kg, respectively. In data set [6], the “Arterial pressure Decrease” value is recorded as 35.0%.
Take `O=C1NCC(CN2CCN(C(c3ccccc3)c3ccccc3)CC2)O1` (stereo not drawn) [Compound 15]: the “Carotid flow Decrease” value in data set [2] was 60.0%. The molecule further gave an LD50 in data set [9] of 40 ± 4.19 mg/kg. For the same molecule, the “Cerebral vascular resistance Decrease” value in data set [3] is reported as 60.3%. In addition, in [4], the “Cerebral flow Increase” value is on record as 38.5%. Moreover, the ED50 in data set [5] was determined as 1.2 mg/kg; in data set [7], 16.5 mg/kg; in data set [8], 3 mg/kg. Moreover, in data set [6], the “Arterial pressure Decrease” value was found to be 45.5%.
